Assays:
P2X2R D277A = system: P2X2R D277A; design: method as in PMID 18194442; key: n.f.: non-functional mutants; ↑: mutant with significant increased EC50 in comparison to WT (values represent fold increase); ≈: close to WT receptor; D: affected time-constant of the desensitizing current response; details: cited from earlier work
P2X3R D266A = system: P2X3R D266A; design: method as in PMID 15475563; key: n.f.: non-functional mutants; ↑: mutant with significant increased EC50 in comparison to WT (values represent fold increase); ≈: close to WT receptor; D: affected time-constant of the desensitizing current response; details: cited from earlier work
P2X1R P287C = system: P2X1R P287C; design: method as in PMID 17428985; key: n.f.: non-functional mutants; ↑: mutant with significant increased EC50 in comparison to WT (values represent fold increase); ≈: close to WT receptor; D: affected time-constant of the desensitizing current response; details: cited from earlier work
rP2X4R R203A mutant = target: T1, rP2X4R R203A mutant (Rattus norvegicus, UniProt P51577, R203A); experiment: whole-cell patch clamp, HEK293T cells expressing mutant; assay type: cell-based
T1 construct: expressed in transfected cells; host or cells: HEK293T

rP2X4R N293A mutant = target: T2, rP2X4R N293A mutant (Rattus norvegicus, UniProt P51577, N293A); experiment: as above; assay type: cell-based
T2 construct: expressed in transfected cells; host or cells: HEK293T

P2X4R N287A = system: P2X4R N287A; design: method as in PMID 17663752, PMID 15632318; key: n.f.: non-functional mutants; ↑: mutant with significant increased EC50 in comparison to WT (values represent fold increase); ≈: close to WT receptor; D: affected time-constant of the desensitizing current response; details: cited from earlier work
P2X4R V288A = system: P2X4R V288A; design: method as in PMID 24943126; details: cited from earlier work
P2X3R M200C = system: P2X3R M200C; design: method as in PMID 24989924; details: cited from earlier work
P2X3R E197A = system: P2X3R E197A; design: method as in PMID 15475563; key: n.f.: non-functional mutants; ↑: mutant with significant increased EC50 in comparison to WT (values represent fold increase); ≈: close to WT receptor; D: affected time-constant of the desensitizing current response; details: cited from earlier work
P2X2R N288A = system: P2X2R N288A; design: method as in PMID 10940304; details: cited from earlier work
P2X4R I205A = system: P2X4R I205A; design: method as in PMID 24943126; details: cited from earlier work
[1] = decay after removal of 1 or 3 µM ATP, 3 µM IVM

T1 sequence (P51577 whole entry R203A): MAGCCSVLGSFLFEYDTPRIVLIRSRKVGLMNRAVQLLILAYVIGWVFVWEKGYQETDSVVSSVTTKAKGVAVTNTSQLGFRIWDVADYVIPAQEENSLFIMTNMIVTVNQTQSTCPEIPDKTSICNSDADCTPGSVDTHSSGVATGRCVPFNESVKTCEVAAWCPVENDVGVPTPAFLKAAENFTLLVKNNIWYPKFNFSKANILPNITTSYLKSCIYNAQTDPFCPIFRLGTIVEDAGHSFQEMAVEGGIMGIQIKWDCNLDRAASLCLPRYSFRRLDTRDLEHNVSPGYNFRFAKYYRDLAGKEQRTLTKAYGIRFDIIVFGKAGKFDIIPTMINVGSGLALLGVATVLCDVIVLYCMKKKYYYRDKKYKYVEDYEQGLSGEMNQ
T2 sequence (P51577 whole entry N293A): as the sequence (P51577 whole entry R203A) above, with A203R, N293A counted along it

Nc1ncnc2c1ncn2[C@@H]1O[C@H](COP(=O)(O)OP(=O)(O)OP(=O)(O)O)[C@@H](O)[C@H]1O [ATP]
change in EC50 for ATP (P2X2R D277A): D277A:: ≈[56] | change in desensitization (P2X3R D266A): D266A: D[53] | change in EC50 for ATP (P2X1R P287C): P287C: ≈[9] | Imax+IVM (rP2X4R R203A mutant; ATP after 3 µM IVM 4-6 min): 2.9 ± 0.6 nA | τoff +IVM (rP2X4R R203A mutant; [1]): 4.6 ± 0.3 s | Imax+IVM (rP2X4R N293A mutant; ATP after 3 µM IVM 4-6 min): 2.0 ±0.5 nA | τoff +IVM (rP2X4R N293A mutant; [1]): 2.8 ± 0.2 s | change in EC50 for ATP (P2X4R N287A): N287A: ≈[10], [52] | fold increase of EC50 for ATP in comparison to WT (P2X4R V288A): V288A: ↑2x[49] | fold increase of EC50 for ATP in comparison to WT (P2X3R M200C): M200C:↑8x[58] | change in desensitization (P2X3R E197A): E197A: D[53] | fold increase of EC50 for ATP in comparison to WT (P2X2R N288A): N288A: ↑>100x[6] | fold increase of EC50 for ATP in comparison to WT (P2X4R I205A): I205A: ↑2,5x[49]

— PMC4232510, “Identification of Functionally Important Residues of the Rat P2X4 Receptor by Alanine Scanning Mutagenesis of the Dorsal Fin and Left Flipper Domains” (PLoS ONE, 2014)
